Data from US8431530B2, “Compositions and methods for treating aids or cancer by inhibiting the secretion of microparticles” (priority 2009, dated 2013).

Columns and labels:
[1] = test system: Gag-GFP + HIV-1wtNef-RFP secretion, THP-1 Monocyte; experiment: Gag-GFP secretion in presence of wtNef-RFP, fluorescent plate reader assay; type: cell-based; conditions: Gag-GFP + HIV-1wtNef-RFP + peptide, 48 hours
Procedure: (§1) Cells were transfected with the pQBI-HIV Gag-GFP construct, wtNef-RFP, and either the antagonist (SMRwt peptide), the negative control SMRmt peptide, or a random peptide sM1 with Chariot for 48 hours. The conditioned supernatants from these cultures were assayed for GFP fluorescence by plate reader.

[2] = test system: Gag-GFP + HIV-1wtNef-RFP secretion, Jurkat; experiment: as above; type: cell-based; conditions: Jurkat, Gag-GFP + HIV-1wtNef-RFP + peptide, 48 hours
Procedure: as §1

[3] = test system: HIV-1 Nef-GFP secretion, cell line H; experiment: HIV-1 Nef-GFP induced secretion, fluorescent plate reader assay; type: cell-based; conditions: HIV-1 Nef-GFP (sM1 column head prints GFP/sM1)
[4] = test system: NefGFP release from HEK293 cells; experiment: Nef-GFP co-transfection secretion assay, GFP fluorescence of supernatant; type: cell-based; conditions: HEK293, 0.5 μg Nef-GFP + 0.5 μg peptide, Chariot, 48 h; relative to NefGFP+sM1 (100%)
Procedure: Therefore, a set of co-transfection experiments were performed. HEK293 cells were co-transfected with 0.5 μg of pQBI-HIV Nef-GFP (expresses wild type Nef protein) and either 0.5 μg of HIV-1 Nef SMRwt or SMRmut peptide or sM1 peptide (a totally random control peptide, ALAETCQNAWA (SEQ ID NO: 7)) with Chariot. Briefly, the wild-type Nef-GFP clone and the SMR peptides were complexed with Chariot reagent for 30 minutes at RT. The DNA/peptide/Chariot complex was added to HEK293 cells in serum-free media, and the cells were plated. Following incubation for 2 hours at 37° C., media with serum was added to the dish, and the cells were incubated at 37° C. for 48 h. The media was then collected and assayed for secretion using a spectrofluorimeter. The conditioned supernatants from these cultures were assayed for GFP fluorescence by plate reader.

[5] = test system: pNL4-3 in Jurkat cells; experiment: p24 assay of virion production after pNL4-3 co-transfection; type: cell-based, HIV; conditions: Jurkat; for p24: co-transfected with pNL4-3; for Effect (a/b): p24 of sample / p24 of pNL4-3 + sM1
Procedure: I. Jurkat cells were co-transfected as shown below: (transfection efficiency 30-40% by Chariot Kit):
(§2) pNL4-3 is a clone containing the viral genome. Transfection into cells allows expression of the viral genome and ultimately virion formation and release. The amount of virion production in the extracellular supernatant is measured through p24 protein (viral protein). Samples were collected at 48 hours and 96 hours post-infection.
(§3) At 48 hr postinfection two plates in each group were removed and analyzed by: • a. p24 assay • b. Nef assay • c. Infectivity assay • At 96 hr postinfection the other two plates in each group were removed and analyzed by: • a. p24 assay • b. Nef assay • c. Infectivity assay

[6] = test system: HIV-1 Gag-GFP secretion, THP-1; experiment: HIV-1 Gag-GFP induced secretion, fluorescent plate reader assay; type: cell-based; conditions: THP-1, HIV-1 Gag-GFP (sM1 column head prints GFP/sM1), 0.5 μg peptide, 48 hours
Procedure: (§4) Cells were co-transfected with 0.5 μg of pQBI-HIV Gag-GFP (expresses wild type Gag protein) and either 0.5 μg of HIV-1 Nef SMRwt, SMRmut peptide, sM1 peptide or untransfected controls with Chariot for 48 hours. The conditioned supernatants from these cultures were assayed for GFP fluorescence by plate reader.

[7] = test system: HIV-1 Gag-GFP secretion, HEK293; experiment: as above; type: cell-based; conditions: HEK293, HIV-1 Gag-GFP (sM1 column head prints GFP/sM1), 0.5 μg peptide, 48 hours
Procedure: as §4

[8] = test system: HIV-1 Gag-GFP secretion, U937; experiment: as above; type: cell-based; conditions: U937, HIV-1 Gag-GFP (sM1 column head prints GFP/sM1), 0.5 μg peptide, 48 hours
Procedure: as §4

[9] = test system: HIV-1 Gag-GFP secretion, Jurkat; experiment: as above; type: cell-based; conditions: HIV-1 Gag-GFP (sM1 column head prints GFP/sM1), 0.5 μg peptide, 48 hours
Procedure: as §4

[10] = test system: pNL4-3 in 293 cells; experiment: p24 assay of virion production after pNL4-3 co-transfection; type: cell-based, HIV; conditions: for p24: co-transfected with pNL4-3; for Effect (a/b): p24 of sample / p24 of pNL4-3 + sM1
Procedure: as §2, §3

[11] = lower doses could be less toxic; cited from earlier work
[12] = target: Mortalin (Homo sapiens, UniProt P38646); conditions: literature; inactivates chaperone function; cited from earlier work
Chain of Mortalin (P38646 47-679): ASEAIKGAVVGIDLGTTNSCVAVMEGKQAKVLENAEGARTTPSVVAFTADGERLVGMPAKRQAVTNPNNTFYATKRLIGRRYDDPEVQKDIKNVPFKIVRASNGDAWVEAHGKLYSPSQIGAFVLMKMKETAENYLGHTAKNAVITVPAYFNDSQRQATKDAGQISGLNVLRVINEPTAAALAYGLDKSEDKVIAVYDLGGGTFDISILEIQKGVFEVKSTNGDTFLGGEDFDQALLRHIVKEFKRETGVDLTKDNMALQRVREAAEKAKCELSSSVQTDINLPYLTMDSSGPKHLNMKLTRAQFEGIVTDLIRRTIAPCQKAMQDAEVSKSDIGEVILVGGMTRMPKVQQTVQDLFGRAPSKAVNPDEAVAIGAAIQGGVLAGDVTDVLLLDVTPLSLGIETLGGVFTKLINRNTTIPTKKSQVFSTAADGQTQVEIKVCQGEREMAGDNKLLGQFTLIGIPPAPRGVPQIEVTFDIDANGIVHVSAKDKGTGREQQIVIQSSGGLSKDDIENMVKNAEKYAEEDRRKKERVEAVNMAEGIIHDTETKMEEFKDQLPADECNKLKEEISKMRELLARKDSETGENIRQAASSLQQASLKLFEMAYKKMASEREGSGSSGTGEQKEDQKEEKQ

[13] = test system: human tumor cell lines; conditions: cited from earlier work

With “ALAETCQNAWA [sM1, a totally random control peptide]” the “Secretion relative to untransfected cells” value ([1]; first line) was 43.11x, the “Secretion relative to untransfected cells” value ([1]; second line (not explained)) was 20.51x and the “Secretion relative to untransfected cells” value ([2]; first line) was 61.99x. For the same molecule, the “Secretion relative to untransfected cells” value ([2]; second line (not explained)) was 40.36x, the “Increase in Secretion (relative to untransfected cells), exp condition/UT” value [3] was 1.05x and the “release of NefGFP into the extracellular supernatant (GFP fluorescence)” value [4] was “no effect”. The p24 ([5]; 48 hr) was 0 pg/mL, the “Effect (a/b)” value ([5]; 48 hr) was 1 and the p24 ([5]; 96 hr) was 30 pg/mL. The “Effect (a/b)” value ([5]; 96 hr) was 1, the “Increase in Secretion (relative to untransfected cells), exp condition/UT” value [6] was 0.85x and the “Increase in Secretion (relative to untransfected cells), exp condition/UT” value [7] was 2.05x. The “Increase in Secretion (relative to untransfected cells), exp condition/UT” value [8] was 1.05x, the “Increase in Secretion (relative to untransfected cells), exp condition/UT” value [9] was 1.09x and the p24 ([10]; 293, 48 hr) was 45 pg/mL. For the same molecule, the “Effect (a/b)” value ([10]; 293, 48 hr) was 1.0, the p24 ([10]; 293, 96 hr) was 960 pg/mL and the “Effect (a/b)” value ([10]; 293, 96 hr) was 1.
For CCn1c(=O)/c(=C2\Sc3ccccc3N2C)s/c1=C\c1cccc[n+]1CC.[Cl-] [MKT-077], the “toxicity in clinical trials” value [11] is given as “renal toxicity”, the “binding to Mortalin” value [12] is given as “binds to the nucleotide-binding domain (NBD) of Mortalin” and the “death of cancer cells” value ([13]; literature (Deocaris et al. 2007)) is given as “causes selective death of cancer cells”. The “senescence in human tumor cell lines” value ([13]; literature) was “inducing senescence”.
